Measured values taken from PMC7248693, “Synthesis and Biological Evaluation of 2-Substituted Benzyl-/Phenylethylamino-4-amino-5-aroylthiazoles as Apoptosis-Inducing Anticancer Agents” (Molecules, 2020).
One block for each molecule: values may come before it.

Assays:
[1] = test system: U-937; test: Antiproliferative activity, MTT assay, U-937 cells; assay type: cell-based, human; conditions: for IC50: Homo sapiens, U-937, 72 h, MTT, mean ± SE, at least three independent experiments; for fold more potent than p-methoxy counterpart 8j: antiproliferative activity, cell line not specified (U-937 and SK-MEL-1)
Description: (§1) In Table 1, we summarize the antiproliferative activity of the 15 novel 2-arylalkylamino-4-amino-5-(3′,4′,5′-trimethoxybenzoyl)thiazole derivatives 8a–o against human leukemia (U-937) and melanoma (SK-MEL-1) tumor cells lines.
(§2) Human U-937 and SK-MEL-1 cell lines were from the German Collection of Microorganisms and Cell Cultures (Braunschweig, Germany; DSMZ No: ACC 5 and ACC 303, respectively). The U-937 is a myeloid leukemia cell line isolated from a histiocytic lymphoma. SK-MEL-1 is a melanoma cell line. Cells were cultured in suspension in RPMI 1640 medium supplemented with 10% (v/v) fetal bovine serum and antibiotics (100 μg mL^−1 streptomycin and 100 U mL^−1 penicillin), at 37 °C in a humidified atmosphere containing 5% CO2. The trypan blue exclusion method was used for counting the cells by a hemocytometer, and cell viability was always greater than 95% in all experiments. Compounds were dissolved in DMSO, and further dilutions were made in culture medium just before use. […] The effects on cell viability of synthetic compounds were determined using a colorimetric assay with the reduction of 3-(4,5-dimethyl-2-thiazolyl-)-2,5-diphenyl-2H-tetrazolium bromide (MTT) as previously described. Briefly, 5 × 10^3 cells were seeded in 96-well microculture plates with increasing concentrations of compounds for 72 h. Then, MTT (0.5 mg mL^−1) was added and incubated for 4 h, and the reaction was stopped with 20% sodium dodecyl sulfate. A570 was used as a measure of cell viability. Concentrations inducing a 50% inhibition of cell growth were determined graphically by nonlinear regression using the curve-fitting algorithm of GraphPad Prism 4.0 (GraphPad Inc La Jolla, CA, USA).

[2] = test system: SK-MEL-1; test: Antiproliferative activity, MTT assay, SK-MEL-1 cells; assay type: cell-based, human; conditions: for IC50: Homo sapiens, SK-MEL-1, 72 h, MTT, mean ± SE, at least three independent experiments
Description: as §1, §2

[3] = biological target: T1, CDK9/CyclinK (Homo sapiens, UniProt P50750); test: In vitro CDK inhibition assay (ADP-Glo), CDK9; assay type: biochemical; conditions: single concentration of 10 μM; range over CDK4, CDK6, CDK9 and 8f, 8k; read-out: enzyme inhibition CDK9
T1 construct: purchased Promega
Method: (§3) The CDK4, 6 and 9 inhibitory activies were determined using the CDK4/Cyclin D1 Assay kit (ProQinase, Freiburg im Breisgau, Germany), CDK6/Cyclin D3 Kinase Enzyme System (Promega, Milan, Italy) and CDK9/CyclinK Kinase Enzyme System (Promega) by ADP-Glo CDK assays following the manufacturer’s instructions. The assay was performed with the test compounds at 10 μM.

[4] = Cytotoxicity against peripheral blood lymphocytes, MTT assay; assay type: cell-based; conditions: human, peripheral blood lymphocytes (PBL) from healthy donors, read-out: IC50 cytotoxic activity against normal cells (PBL)
Method: In order to investigate the selective antiproliferative activity of the new synthesized compounds, we tested representative derivatives 8f and 8k against peripheral blood lymphocytes (PBL) isolated from healthy donors.
PBLs from healthy donors were obtained by separation on Lymphoprep (Fresenius KABI Norge AS, Halden, Norway) gradient. After extensive washing, cells were resuspended (1.0 × 10^6 cells/mL) in RPMI-1640 with 10% fetal bovine serum and incubated overnight in a 96-well tissue culture microtiter plate. Varying compound concentrations were added to the cells, and the MTT assay was used to assess viability after a 48 h treatment.

[5] = test system: U-937 leukemia cells; test: Cell cycle analysis by flow cytometry (propidium iodide); assay type: cell-based, human
Method: Induction of apoptosis in cancer cells is recognized as an efficient strategy for cancer chemotherapy. For this reason, it was decided to determine whether these compounds display their cytotoxic action through alterations in cell cycle progression and induction of cell apotosis. To this end, the effects at different time periods (6, 12 and 24 h) with different concentrations (10 and 30 μM) of 8f and 8k on cell cycle progression on U-937 leukemia cells were investigated by flow cytometry analyses.
Flow cytometric analysis of propidium iodide-stained cells was performed as previously described. Briefly, U-937 cells were treated with the indicated compounds at the specified concentrations in RPMI 1640 medium. After treatments, cells were centrifuged for 10 min at 500× g, washed with cold phosphate-buffered saline (PBS), fixed with ice-cold 75% ethanol and stored at −20 °C for at least 1 h. Samples were then centrifuged at 500 × g for 10 min at 4 °C, washed with PBS, resuspended in 200 μL of PBS containing 100 μg mL^−1 RNase A and 50 μg mL^−1 propidium iodide and incubated for 1 h in the dark. The DNA content was analyzed by flow cytometry with a Becton-Dickinson FACSVerse^TM cytometer (BD Biosciences, San Jose, CA, USA). The percentage of cells in each phase of the cell cycle was determined for a minimum of 10^4 cells, and histograms were analyzed with Flowing 2.5.0 software.

[6] = test system: Bovine brain tubulin; test: Inhibition of tubulin polymerization (turbidimetric assembly); assay type: biochemical
Method: Bovine brain tubulin was purified as described previously. To evaluate the effect of the compounds on tubulin assembly in vitro [31], varying concentrations were preincubated with 10 μM tubulin in glutamate buffer at 30 °C and then cooled to 0 °C. After addition of GTP, the mixtures were transferred to 0 °C cuvettes in a recording spectrophotometer and warmed to 30 °C, and the assembly of tubulin was observed turbidimetrically. The IC50 was defined as the compound concentration that inhibited the extent of assembly by 50% after a 20 min incubation.

[7] = biological target: T2, CDK4/Cyclin D1 (Homo sapiens, UniProt P11802); test: In vitro CDK inhibition assay (ADP-Glo), CDK4; assay type: biochemical; conditions: single concentration of 10 μM; range over CDK4, CDK6, CDK9 and 8f, 8k; read-out: enzyme inhibition CDK4
T2 construct: purchased ProQinase
Method: as §3

[8] = biological target: T3, CDK6/Cyclin D3 (Homo sapiens, UniProt Q00534); test: In vitro CDK inhibition assay (ADP-Glo), CDK6; assay type: biochemical; conditions: single concentration of 10 μM; range over CDK4, CDK6, CDK9 and 8f, 8k; read-out: enzyme inhibition CDK6
T3 construct: purchased Promega
Method: as §3

T1 sequence (P50750 whole entry): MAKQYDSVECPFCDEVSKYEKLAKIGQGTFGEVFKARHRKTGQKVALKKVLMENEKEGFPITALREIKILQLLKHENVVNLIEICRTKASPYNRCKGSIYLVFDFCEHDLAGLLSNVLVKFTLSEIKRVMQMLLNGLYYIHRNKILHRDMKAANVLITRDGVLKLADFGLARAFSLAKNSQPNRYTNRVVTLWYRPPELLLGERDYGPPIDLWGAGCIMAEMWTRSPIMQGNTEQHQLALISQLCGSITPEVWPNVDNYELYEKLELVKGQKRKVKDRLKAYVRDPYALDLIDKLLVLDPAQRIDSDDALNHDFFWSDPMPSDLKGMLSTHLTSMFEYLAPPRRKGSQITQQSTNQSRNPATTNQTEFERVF
T1 sequence (O75909 whole entry partner): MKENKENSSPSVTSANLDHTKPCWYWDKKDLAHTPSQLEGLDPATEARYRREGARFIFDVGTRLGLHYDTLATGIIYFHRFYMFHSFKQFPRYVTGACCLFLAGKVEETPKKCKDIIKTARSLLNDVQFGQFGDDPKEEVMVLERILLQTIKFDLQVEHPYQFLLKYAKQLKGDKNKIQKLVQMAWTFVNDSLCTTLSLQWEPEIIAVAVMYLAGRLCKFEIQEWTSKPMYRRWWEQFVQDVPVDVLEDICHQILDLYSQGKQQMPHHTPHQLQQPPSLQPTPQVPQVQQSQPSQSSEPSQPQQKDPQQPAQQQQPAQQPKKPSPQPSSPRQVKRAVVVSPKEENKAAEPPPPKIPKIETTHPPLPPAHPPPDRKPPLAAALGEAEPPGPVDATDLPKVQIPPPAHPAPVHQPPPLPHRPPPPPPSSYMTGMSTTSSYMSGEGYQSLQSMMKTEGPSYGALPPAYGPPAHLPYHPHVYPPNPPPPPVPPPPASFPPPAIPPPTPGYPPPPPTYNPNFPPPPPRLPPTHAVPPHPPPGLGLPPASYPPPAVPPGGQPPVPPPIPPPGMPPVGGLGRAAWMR
T3 sequence (Q00534 whole entry): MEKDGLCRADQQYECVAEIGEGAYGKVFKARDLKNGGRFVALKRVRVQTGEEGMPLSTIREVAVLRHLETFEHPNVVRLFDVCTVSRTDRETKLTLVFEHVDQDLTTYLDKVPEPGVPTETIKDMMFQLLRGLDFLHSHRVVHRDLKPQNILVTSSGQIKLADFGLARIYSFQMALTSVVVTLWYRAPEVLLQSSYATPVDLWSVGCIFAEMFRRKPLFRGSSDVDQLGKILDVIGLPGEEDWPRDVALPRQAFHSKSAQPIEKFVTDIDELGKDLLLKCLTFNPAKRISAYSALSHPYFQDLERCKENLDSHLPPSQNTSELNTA
T3 sequence (P30281 whole entry partner): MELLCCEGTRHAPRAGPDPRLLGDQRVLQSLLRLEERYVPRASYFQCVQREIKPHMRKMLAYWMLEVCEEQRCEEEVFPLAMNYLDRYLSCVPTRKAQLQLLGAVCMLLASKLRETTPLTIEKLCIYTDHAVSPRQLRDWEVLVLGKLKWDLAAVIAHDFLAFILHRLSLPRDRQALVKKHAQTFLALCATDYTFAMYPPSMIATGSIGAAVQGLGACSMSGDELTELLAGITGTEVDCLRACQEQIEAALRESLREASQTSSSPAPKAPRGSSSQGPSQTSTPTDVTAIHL
T2 sequence (P11802 whole entry): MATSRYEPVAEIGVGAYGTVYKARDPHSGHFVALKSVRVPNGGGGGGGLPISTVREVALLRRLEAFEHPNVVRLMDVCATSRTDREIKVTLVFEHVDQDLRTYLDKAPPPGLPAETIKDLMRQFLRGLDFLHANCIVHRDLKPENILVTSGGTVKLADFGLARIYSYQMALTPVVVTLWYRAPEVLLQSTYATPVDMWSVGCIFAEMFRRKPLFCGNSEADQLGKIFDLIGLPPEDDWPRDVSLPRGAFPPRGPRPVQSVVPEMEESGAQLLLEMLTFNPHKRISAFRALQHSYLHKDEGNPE
T2 sequence (P24385 whole entry partner): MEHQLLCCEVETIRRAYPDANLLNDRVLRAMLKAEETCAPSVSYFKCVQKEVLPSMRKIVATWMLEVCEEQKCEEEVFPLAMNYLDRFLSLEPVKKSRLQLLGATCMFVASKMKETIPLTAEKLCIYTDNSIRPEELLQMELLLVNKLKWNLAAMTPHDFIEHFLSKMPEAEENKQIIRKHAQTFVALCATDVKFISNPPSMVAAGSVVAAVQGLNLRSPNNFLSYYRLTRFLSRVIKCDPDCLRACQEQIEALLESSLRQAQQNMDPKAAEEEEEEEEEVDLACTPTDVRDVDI

IC50 [1]: 23.8 ± 5.2 µM
IC50 [2]: 22.9 ± 13.7 µM
melting point: 131 to 135 °C
SMILES: COc1ccc(CNc2nc(N)c(C(=O)c3cc(OC)c(OC)c(OC)c3)s2)cc1 [8j, (4-Amino-2-((4-methoxybenzyl)amino)thiazol-5-yl)(3,4,5-trimethoxyphenyl)methanone]

IC50 [1]: 15.4 ± 4.9 µM
IC50 [2]: 19 ± 9.4 µM
melting point: 145 to 147 °C
SMILES: COc1cc(C(=O)c2sc(NCc3ccc(C)cc3)nc2N)cc(OC)c1OC [8h, (4-Amino-2-((4-methylbenzyl)amino)thiazol-5-yl)(3,4,5-trimethoxyphenyl)methanone]

IC50 [1]: 12.3 ± 6.1 µM
IC50 [2]: 12.4 ± 4.8 µM
melting point: 125 to 128 °C
SMILES: COc1cccc(CNc2nc(N)c(C(=O)c3cc(OC)c(OC)c(OC)c3)s2)c1 [8l, (4-Amino-2-((3-methoxybenzyl)amino)thiazol-5-yl)(3,4,5-trimethoxyphenyl)methanone]
fold more potent than p-methoxy counterpart 8j [1]: 2 fold

IC50 [1]: 34.3 ± 2.2 µM
IC50 [2]: 48.3 ± 4.6 µM
SMILES: COc1ccc(-c2nc(N)c(C(=O)c3cc(OC)c(OC)c(OC)c3)s2)cc1 [1a, reference compound]

IC50 [1]: 12.9 ± 3.3 µM
IC50 [2]: 15.7 ± 4.9 µM
melting point: 154 to 157 °C
SMILES: COc1cc(C(=O)c2sc(NCc3ccc(Br)cc3)nc2N)cc(OC)c1OC [8g, (4-Amino-2-((4-bromobenzyl)amino)thiazol-5-yl)(3,4,5-trimethoxyphenyl)methanone]

IC50 [1]: 27 ± 0.9 µM
IC50 [2]: 24.7 ± 1 µM
melting point: 156 to 158 °C
SMILES: COc1cc(C(=O)c2sc(NCc3ccc4c(c3)OCO4)nc2N)cc(OC)c1OC [8o, (4-Amino-2-((benzo[d][1,3]dioxol-5-ylmethyl)amino)thiazol-5-yl)(3,4,5-trimethoxyphenyl) methanone]

IC50 [1]: 0.083 ± 0.021 µM
IC50 [2]: 0.274 ± 0.07 µM
SMILES: COc1cccc2c1C(=O)c1c(O)c3c(c(O)c1C2=O)C[C@@](O)(C(=O)CO)C[C@@H]3O[C@H]1C[C@H](N)[C@H](O)[C@H](C)O1 [Doxorubicin, reference compound]

IC50 [1]: 39.1 ± 4.2 µM
IC50 [2]: 51 ± 1.4 µM
melting point: 132 to 134 °C
SMILES: COc1cc(C(=O)c2sc(NCc3ccc(F)cc3)nc2N)cc(OC)c1OC [8d, (4-Amino-2-((4-fluorobenzyl)amino)thiazol-5-yl)(3,4,5-trimethoxyphenyl)methanone]

IC50 [1]: 19.3 ± 5.6 µM
IC50 [2]: 20.5 ± 6.9 µM
melting point: 135 to 138 °C
SMILES: COc1cc(C(=O)c2sc(NCCc3ccccc3)nc2N)cc(OC)c1OC [8b, (4-Amino-2-(phenethylamino)thiazol-5-yl)(3,4,5-trimethoxyphenyl)methanone]

IC50 [1]: 10.7 ± 2.8 µM
IC50 [2]: 16.7 ± 7 µM
SMILES: COc1cc(C(=O)c2sc(NCCCc3ccccc3)nc2N)cc(OC)c1OC [8c, (4-Amino-2-((3-phenylpropyl)amino)thiazol-5-yl)(3,4,5-trimethoxyphenyl)methanone]
increase in potency relative to 8a and 8b ([1]; U-937 cells): 2 fold

IC50 [1]: 8.7 ± 5.4 µM
IC50 [2]: 8.3 ± 5.5 µM
melting point: 156 to 159 °C
SMILES: COc1cc(C(=O)c2sc(NCc3ccc(Cl)cc3)nc2N)cc(OC)c1OC [8e, (4-Amino-2-((4-chlorobenzyl)amino)thiazol-5-yl)(3,4,5-trimethoxyphenyl)methanone]
fold more potent than 8f ([2]; SK-MEL-1 cells): 1.5 fold

IC50 [1]: 21.1 ± 5.1 µM
IC50 [2]: 14.2 ± 9.7 µM
melting point: 147 to 149 °C
SMILES: COc1cc(C(=O)c2sc(NCc3ccccc3)nc2N)cc(OC)c1OC [8a, (4-Amino-2-(benzylamino)thiazol-5-yl)(3,4,5-trimethoxyphenyl)methanone]

IC50 [1]: 28.7 ± 10.5 µM
IC50 [2]: 32.7 ± 7.7 µM
melting point: 107 to 111 °C
SMILES: COc1ccc(CNc2nc(N)c(C(=O)c3cc(OC)c(OC)c(OC)c3)s2)cc1OC [8n, (4-Amino-2-((3,4-dimethoxybenzyl)amino)thiazol-5-yl)(3,4,5-trimethoxyphenyl)methanone]

inhibition at 10 µM [3]: 2 to 8%
IC50 [1]: 6.7 ± 3.6 µM
IC50 [2]: 12.2 ± 3.2 µM
IC50 ([6]; 10 μM tubulin, 20 min incubation at 30 °C): > 20 µM
inhibition at 10 µM [7]: 2 to 8%
inhibition at 10 µM [8]: 2 to 8%
SMILES: COc1cc(C(=O)c2sc(NCCc3ccc(Cl)cc3)nc2N)cc(OC)c1OC [8f, (4-Amino-2-((4-chlorophenethyl)amino)thiazol-5-yl)(3,4,5-trimethoxyphenyl)methanone]
IC50 at 48 h [4]: > 100 µM
% G1 ([5]; 6 h, 10 µM): 40.4 ± 1.0 %
% G2-M ([5]; 6 h, 10 µM): 23.6 ± 1.3%
% S ([5]; 6 h, 10 µM): 29.3 ± 0.1 %
% Sub-G1 ([5]; 6 h, 10 µM): 4.4 ± 0.5%
% G1 ([5]; 6 h, 30 µM): 40.5 ± 1.6 %
% G2-M ([5]; 6 h, 30 µM): 23.3 ± 1.4%
% S ([5]; 6 h, 30 µM): 30.9 ± 0.4 %
% Sub-G1 ([5]; 6 h, 30 µM): 3.8 ± 0.1%
% G1 ([5]; 12 h, 10 µM): 47.8 ± 1.0%
% G2-M ([5]; 12 h, 10 µM): 21.5 ± 1.2%
% S ([5]; 12 h, 10 µM): 22.4 ± 0.2%
% Sub-G1 ([5]; 12 h, 10 µM): 6.5 ± 0.2 %
% G1 ([5]; 12 h, 30 µM): 27.4 ± 0.4 %
% G2-M ([5]; 12 h, 30 µM): 27.6 ± 0.6 %
% S ([5]; 12 h, 30 µM): 25.5 ± 0.1 %
% Sub-G1 ([5]; 12 h, 30 µM): 17.8 ± 1.0 %
% G1 ([5]; 24 h, 10 µM): 42.5 ± 0.3 %
% G2-M ([5]; 24 h, 10 µM): 15.0 ± 0.8%
% S ([5]; 24 h, 10 µM): 29.8 ± 0.3 %
% Sub-G1 ([5]; 24 h, 10 µM): 10.3 ± 0.7 %
% G1 ([5]; 24 h, 30 µM): 12.6 ± 0.7 %
% G2-M ([5]; 24 h, 30 µM): 16.6 ± 0.8%
% S ([5]; 24 h, 30 µM): 13.6 ± 0.6 %
% Sub-G1 ([5]; 24 h, 30 µM): 56.2 ± 2.0 %
increase of apoptotic cells with respect to control cells ([5]; 24 h, 30 µM): approximately 16.5 fold
inhibition of tubulin polymerization ([6]; at high concentrations (up to 20 μM)): did not show any noteworthy inhibition

IC50 [1]: 0.484 ± 0.368 µM
IC50 [2]: 5.2 ± 1.4 µM
SMILES: COc1ccc(Nc2nc(N)c(C(=O)c3cc(OC)c(OC)c(OC)c3)s2)cc1 [2a, reference compound]

IC50 [1]: 18.1 ± 6.4 µM
IC50 [2]: 16.7 ± 5.6 µM
melting point: 150 to 152 °C
SMILES: COc1cc(C(=O)c2sc(NCc3cccc(C)c3)nc2N)cc(OC)c1OC [8i, (4-Amino-2-((3-methylbenzyl)amino)thiazol-5-yl)(3,4,5-trimethoxyphenyl)methanone]

IC50 [1]: 2.1 ± 0.4 µM
IC50 [2]: 6.3 ± 1 µM
SMILES: COc1cc([C@@H]2c3cc4c(cc3[C@@H](O[C@@H]3O[C@@H]5CO[C@@H](C)O[C@H]5[C@H](O)[C@H]3O)[C@H]3COC(=O)[C@H]23)OCO4)cc(OC)c1O [Etoposide, reference compound]

IC50 [1]: 13.6 ± 5.3 µM
IC50 [2]: 10.4 ± 2.8 µM
SMILES: COc1ccccc1CNc1nc(N)c(C(=O)c2cc(OC)c(OC)c(OC)c2)s1 [8m, (4-Amino-2-((2-methoxybenzyl)amino)thiazol-5-yl)(3,4,5-trimethoxyphenyl)methanone]
fold more potent than p-methoxy counterpart 8j [1]: 2 fold
